The source of these data is patent US9128097B2, “Method and kit for assessing viable cells” (ChemoMetec A/S, priority 2008, dated 2015).

Molecules are shown by their SMILES.

In one experiment the test system is HEK293 cells. The experiment can be described thus: NAM/PI staining of outgrown HEK293 cells, fluorescence microscopy. Particulars: 10 μg/mL NAM. It counts as cell-based, Human. The method, then:
Materials and Methods. HEK293 cells were grown at 37° C. in a humidified air atmosphere with 5% CO2 in DMEM (Invitrogen, #31966) supplemented with 10% heat-inactivated fetal bovine serum (Invitrogen, #10108-165). Cells were harvested with 0.5 mL of trypsin (Invitrogen, #25300) and neutralized with 5 mL medium (DMEM+10% FCS) two days after they had reached full confluency. These outgrown HEK293 cells (cell density 1.6×10^6, 78% viable determined using the NC-100 NucleoCounter system following the manufacturer's (ChemoMetec) protocol) were stained with 10 μg/mL NAM (Sigma, #01665). Another cell sample were treated with 0.25% Triton X-100 (Sigma, #T9284) and hereafter added 10 μg/mL NAM. After staining, each cell sample was loaded into a NucleoCassette, containing the DNA stain propidium iodide (PI). The cells were investigated using an Olympus IX50 fluorescence microscope, and images were captured using a Lumenera CCD camera and in-house developed software. PI and NAM fluorescence were detected using, respectively, U-MWG2 (green long pass: 510-550 nm) and U-MNUA2 (UV band pass, 330-385 nm) filter cubes (Olympus).

A further experiment has as its system Jurkat (JM) cells. Briefly: Staining of proliferating Jurkat cells with labelling agent and propidium iodide, fluorescence microscopy. It counts as cell-based. Particulars: 10 μL agent (100 μg pr. mL DMSO) added to 90 μL cells, only exception PI positive cells. The method, then: (§1) Materials and Methods. Jurkat (JM) cells were grown at 37° C. in a humidified air atmosphere with 5% CO2 in RPMI (Invitrogen, #61870) supplemented with 10% heat-inactivated fetal bovine serum (Invitrogen, #10108-165). 90 μL proliferating Jurkat cells (cell density 1.2×10^6, 99% viable determined using the NC-100 NucleoCounter system following the manufacturer's (ChemoMetec A/S) protocol) were added 10 μL NAM (N-(9-acridinyl)maleimide, Sigma, #01665, CAS no. 49759-20-8) dissolved in DMSO (100 μg NAM pr. mL DMSO) and mixed by pipetting. Cells were loaded into a NucleoCassette, containing the DNA stain propidium iodide (PI). The cells were investigated using an Olympus IX50 fluorescence microscope, and images were captured using a Lumenera CCD camera and in-house developed software. PI and NAM fluorescence were detected using, respectively, U-MWG2 (green long pass: 510-550 nm) and U-MNUA2 (UV band pass, 330-385 nm) filter cubes (Olympus).
as §1, with “1.0×10^6,” for “1.2×10^6,”, “(ChemoMetec)” for “(ChemoMetec A/S)”, “CPM (7-diethylamino-3-[4′-maleimidylphenyl]-4-methylcoumarin, Chemodex Ltd.,” for “NAM (N-(9-acridinyl)maleimide, Sigma, #01665,”, “76877-33-3)” for “49759-20-8)”, “CPM” for “NAM”
as §1, with “1.1×10^6, 98%” for “1.2×10^6, 99%”, “(ChemoMetec)” for “(ChemoMetec A/S)”, “PM (N-(1-Pyrenyl)maleimide, Sigma P7908” for “NAM (N-(9-acridinyl)maleimide, Sigma, #01665,”, “42189-56-0)” for “49759-20-8)”, “PM” for “NAM”, “Cells were loaded into a NucleoCassette, containing the DNA stain propidium iodide (PI).” left out
Materials and Methods. […] 90 μL proliferating Jurkat cells (cell density 1.1×10^6, 98% viable determined using the NC-100 NucleoCounter system following the manufacturer's (ChemoMetec) protocol) were added 10 μL CPI (7-diethylamino-3-((4′-(iodoacetyl)amino)phenyl)-4-methylcoumarin, Sigma 78264 CAS no. 76877-34-4) dissolved in DMSO (100 μg CPI pr. mL DMSO) and mixed by pipetting. […] The cells were investigated using an Olympus IX50 fluorescence microscope, and images were captured using a Lumenera CCD camera and in-house developed software. PI and CPI fluorescence were detected using, respectively, U-MWG2 (green long pass: 510-550 nm) and U-MNUA2 (UV band pass, 330-385 nm) filter cubes (Olympus). […]

Consider `O=C1C=CC(=O)N1c1c2ccccc2nc2ccccc12` [NAM, N-(9-acridinyl)maleimide], for which the “staining of Triton X-100 treated cells” value in the experiment on HEK293 cells (HEK293 cells treated with 0.25% Triton X-100) is reported as “NAM negative”. For the same compound, the “staining of cells versus PI” value in the experiment with HEK293 cells (outgrown HEK293 cells, 78% viable) was “NAM and PI were found to complementary stain the outgrown HEK293 cells”. In addition, the “staining of cells (UV filter) versus PI positive cells” value with Jurkat (JM) cells is recorded as “nearly all cells in the proliferating Jurkat cell culture were stained by NAM”.
